One test addresses T1, Syk kinase (Homo sapiens, UniProt P43405).
T1 construct: purchased Upstate, Lake Placid N.Y
The test can be described thus: Syk kinase biochemical fluorescence polarization assay. The note with it: read-out: fp_syk, 11 pt. The method, then: Many of the 2,4-pyrimidinediamine compounds were tested for the ability to inhibit Syk kinase catalyzed phosphorylation of a peptide substrate in a biochemical fluorescenced polarization assay with isolated Syk kinase. In this experiment, Compounds were diluted to 1% DMSO in kinase buffer (20 mM HEPES, pH 7.4, 5 mM MgCl2, 2 mM MnCl2, 1 mM DTT, 0.1 mg/mL acetylated Bovine Gamma Globulin). Compound in 1% DMSO (0.2% DMSO final) was mixed with ATP/substrate solution at room temperature. Syk kinase (Upstate, Lake Placid N.Y.) was added to a final reaction volume of 20 uL, and the reaction was incubated for 30 minutes at room temperature. […] EDTA (10 mM final)/anti-phosphotyrosine antibody (1× final)/fluorescent phosphopeptide tracer (0.5× final) was added in FP Dilution Buffer to stop the reaction for a total volume of 40 uL according to manufacturer's instructions (PanVera Corporation) The plate was incubated for 30 minutes in the dark at room temperature. Plates were read on a Polarion fluorescence polarization plate reader (Tecan). Data were converted to amount of phosphopeptide present using a calibration curve generated by competition with the phosphopeptide competitor provided in the Tyrosine Kinase Assay Kit, Green (PanVera Corporation).

The test system of test [1] is cultured human mast cells (CHMC). Description: CHMC low cell density IgE activation: tryptase assay. The settings on record: IgE activation. The format is cell-based. In a few lines: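 Fluorogenic readout of tryptase released into the supernatant (30 min substrate incubation, room temperature) measures degranulation. Cells were plated at low density (1000–1500/well, varied by donor) and triggered with anti-IgE for 30 min at 37 °C.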

Test [2] shares this test system. Description: CHMC low cell density ionomycin activation: tryptase assay. The format is cell-based. The note with it: Homo sapiens, Mast cell, low cell density CHMC, 3 pt, read-out: LD Tryptase, CHMC, Iono, 3 pt.
Setting [3] is: Homo sapiens, Mast cell, low cell density CHMC, tryptase, 3 pt, read-out: LD Tryptase, CHMC, IgE, 3 pt.
Where [4] appears, read: Homo sapiens, Mast cell, low cell density CHMC, tryptase, 8 pt, read-out: LD Tryptase, CHMC, IgE, 8 pt.
Where [5] appears, read: Homo sapiens, Mast cell, low cell density CHMC, tryptase release, 3 pt, read-out: LD Tryptase, CHMC, IgE, 3 pt.
Setting [6] is: Homo sapiens, Mast cell, low cell density CHMC, tryptase release, 8 pt, read-out: LD Tryptase, CHMC, IgE, 8 pt.
The mark [7] stands for this setting: low cell density, 3 pt, read-out: LD Tryptase, CHMC, IgE, 3 pt.
The mark [8] stands for this setting: low cell density, 8 pt, read-out: LD Tryptase, CHMC, IgE, 8 pt.

Where two headings read alike, the source gives them in different places.

Regarding `Cc1noc(COc2ccc(Nc3nc(Nc4ccc(C(N)=O)cc4)ncc3F)cc2)n1` [Compound 1341, N2-(4-Aminocarbonylphenyl)-5-fluoro-N4-(4-[3-methyl-1,2,4-oxadiazol-5-yl]methyleneoxyphenyl)-2,4-pyrimidinediamine], the IC50 on Syk kinase (isolated Syk kinase, 11 pt) was below 10 µM; in test [1] (setting [3]), below 10 µM; in test [1] (setting [4]), below 10 µM.

Turning to `COCCCn1ncc2cc(Nc3ncc(F)c(Nc4ccc(OC)c(Cl)c4)n3)ccc21` [Compound 792, N4-(3-Chloro-4-methoxyphenyl)-5-fluoro-N2-[1-(3-methoxypropyl)indazol-5-yl]-2,4-pyrimidinediamine], the IC50 was below 10 µM on Syk kinase (isolated Syk kinase, 11 pt); below 10 µM in test [1] (setting [5]); below 10 µM in test [1] (setting [6]); above 10 µM in test [2] (tryptase release).

Consider `CN1CCN(c2ccc(Nc3ncc(F)c(N(C)C4CCC4)n3)cc2)CC1` [Compound 1147, N4-Cyclobutyl-5-fluoro-N4-methyl-N2-[4-(4-methylpiperazino)phenyl]-2,4-pyrimidinediamine], for which the IC50 at Syk kinase (isolated Syk kinase, 11 pt) is below 10 µM; in test [1] (setting [3]), below 10 µM; in test [1] (setting [4]), below 10 µM; in test [2] (tryptase) it was above 10 µM.

As to `CNC(=O)COc1ccc(Nc2nc(Nc3ccc4c(ccn4CC(=O)NC)c3)ncc2F)cc1Cl` [Compound 652, N4-[3-Chloro-4-(N-methylamino)carbonylmethyleneoxyphenyl]-5-fluoro-N2-[1-(N-methylamino)carbonylmethyleneindol-5-yl]-2,4-pyrimidinediamine], the IC50 on Syk kinase (isolated Syk kinase, 11 point) was below 10 µM; in test [1] (Homo sapiens, Mast cell, low cell density CHMC, tryptase release, 8 point, read-out: LD Tryptase, CHMC, IgE, 8 pt), below 10 µM.

Take `Cn1c(N2CCOCC2)nc2cc(Nc3ncc(F)c(Nc4ccc(Cl)c(Cl)c4)n3)ccc21` [Compound 942, N4-(3,4-Dichlorophenyl)-5-fluoro-N2-[1-methyl-2-(4-morpholino)benzimidazol-5-yl]-2,4-pyrimidinediamine]: the IC50 (on Syk kinase (11 pt); in test [1] (setting [7]); in test [1] (setting [8])) was below 10 µM throughout.

For the compound `COc1ccc(Nc2nc(Nc3cccc(-c4nnc(C(C)(C)C)o4)c3)ncc2F)cc1OC` [Compound 530, N2-[ (2-tert-Butyl-1,3,4-oxadiazol-5-yl)phenyl]-N4-(3,4-dimethoxyphenyl)-5-fluoro-2,4-pyrimidinediamine], the IC50 (on Syk kinase (11 pt); in test [1] (setting [7]); in test [1] (setting [8])) was below 10 µM throughout.

Consider `CNC(=O)c1cc2cccc(Nc3ncc(F)c(Nc4cc(OC)cc(OC)c4)n3)c2[nH]1` [Compound 368, N4-(3,5-Dimethoxyphenyl)-5-fluoro-N2-[2-(N-methylamino)carbonylindol-7-yl]-2,4-pyrimidinediamine], for which the IC50 is below 10 µM at Syk kinase (isolated Syk kinase, 11 pt) and below 10 µM in test [1] (setting [3]).

For `CC1(C)Oc2ccc(Nc3ncc(F)c(Nc4ccc(C(N)=O)cc4)n3)cc2NC1=O` [Compound 1337], the IC50 is below 10 µM on Syk kinase (isolated Syk kinase, 11 pt); below 10 µM in test [1] (setting [3]); below 10 µM in test [1] (setting [4]).

As to `COc1ccc(Nc2nc(Nc3ccc4c(cnn4CCCNC(C)=O)c3)ncc2F)cc1Cl` [Compound 819, N2-[1-[3-(N-Acetylamino)propyl]indazol-5-yl]-N4-(3-chloro-4-methoxyphenyl)-5-fluoro-2,4-pyrimidinediamine], the IC50 on Syk kinase (isolated Syk kinase, 11 pt) was below 10 µM; in test [1] (setting [6]), below 10 µM.

On to `COc1cc(Cl)cc(Nc2ncc(F)c(Nc3ccc(OCc4nc(C)no4)cc3)n2)c1` [Compound 1345, N2-(3-Chloro-5-methoxyphenyl)-5-fluoro-N4-(4-[3-methyl-1,2,4-oxadiazol-5-yl]methyleneoxyphenyl)-2,4-pyrimidinediamine], for which the IC50 at Syk kinase (isolated Syk kinase, 11 pt) was below 10 µM; in test [1] (setting [3]), above 10 µM.

For the compound `Nc1nc(Nc2nc(Nc3ccc4cn[nH]c4c3)ncc2F)n[nH]1` [Compound 1255], the IC50 on Syk kinase (isolated Syk kinase, 11 pt) was below 10 µM; in test [1] (setting [4]), below 10 µM.

For the compound `COc1cc(Nc2nc(Nc3cccc4cc(C(=O)N(C)CCO)[nH]c34)ncc2F)cc(OC)c1` [Compound 384], the IC50 is below 10 µM on Syk kinase (isolated Syk kinase, 11 pt); below 10 µM in test [1] (setting [3]); below 10 µM in test [1] (setting [4]).

In the case of `COc1ccc(Nc2nc(Nc3ccc4c(c3)c(N)nn4C)ncc2F)cc1Cl` [Compound 804, N2-(3-Amino-1-methylindazol-5-yl)-N4-(3-chloro-4-methoxyphenyl)-5-fluoro-2,4-pyrimidinediamine], the IC50 at Syk kinase (isolated Syk kinase, 11 pt) was below 10 µM; in test [1] (setting [6]), below 10 µM.

For the compound `CCN(CC)CCNC(=O)c1ccc(Nc2ncc(F)c(Nc3ccc(OCc4nc(C)no4)cc3)n2)cc1` [Compound 1343, N2-(4-[2-[N,N-Diethylamino]ethyleneaminocarbonyl]phenyl)-5-fluoro-N4-(4-[3-methyl-1,2,4-oxadiazol-5-yl]methyleneoxyphenyl)-2,4-pyrimidinediamine], the IC50 at Syk kinase (isolated Syk kinase, 11 pt) was below 10 µM; in test [1] (setting [3]) it was below 10 µM; in test [1] (setting [4]) it was below 10 µM.

On to `Cc1noc(COc2ccc(Nc3nc(Nc4cc(Cl)c(O)c(Cl)c4)ncc3F)cc2)n1` [Compound 1344, N2-(3,5-Dichloro-4-hydroxyphenyl)-5-fluoro-N4-(4-[3-methyl-1,2,4-oxadiazol-5-yl]methyleneoxyphenyl)-2,4-pyrimidinediamine], for which the IC50 at Syk kinase (isolated Syk kinase, 11 pt) was below 10 µM; in test [1] (setting [3]), below 10 µM; in test [1] (setting [4]), above 10 µM.

For `Fc1cnc(Nc2ccc3[nH]c(N4CCOCC4)nc3c2)nc1Nc1ccc(Cl)c(Cl)c1` [Compound 975, N4-(3,4-Dichlorophenyl)-5-fluoro-N2-[2-(4-morpholino)-1H-benzimidazol-5-yl]-2,4-pyrimidinediamine], the IC50 on Syk kinase (11 pt) was below 10 µM; in test [1] (Homo sapiens, Mast cell, low cell density, 8 pt, read-out: LD Tryptase, CHMC, IgE, 8 pt), below 10 µM.

On to `COc1ccc(Nc2nc(Nc3ccc4c(c3)nc(N3CCOCC3)n4C)ncc2F)cc1Cl` [Compound 943, N4-(3-Chloro-4-methoxyphenyl)-5-fluoro-N2-[1-methyl-2-(4-morpholino)benzimidazol-5-yl]-2,4-pyrimidinediamine], for which the IC50 at Syk kinase (11 pt) was below 10 µM; in test [1] (Homo sapiens, Mast cell, low cell density, 3 pt, read-out: LD Tryptase, CHMC, IgE, 3 pt), below 10 µM.

`COc1ccc(Nc2nc(Nc3ccc(C(N)=O)cc3)ncc2F)cc1Cl` [Compound 1321, N2-(4-Aminocarbonylphenyl)-N4-(3-chloro-4-methoxyphenyl)-5-fluoro-2,4-pyrimidinediamine]: the IC50 on Syk kinase (isolated Syk kinase, 11 pt) was below 10 µM; in test [1] (setting [4]) it was below 10 µM.

With `CCN(CC)CCNC(=O)c1ccc(Nc2ncc(F)c(Nc3ccc(OC)c(Cl)c3)n2)cc1` [Compound 1320, N4-(3-Chloro-4-methoxyphenyl)-5-fluoro-N2-(4-[2-[N,N-diethylamino]ethyleneaminocarbonyl]phenyl)-2,4-pyrimidinediamine], the IC50 on Syk kinase (isolated Syk kinase, 11 pt) was below 10 µM; in test [1] (setting [4]), below 10 µM.

On to `CN1CCN(c2ccc(Nc3ncc(F)c(NC4CCCCC4)n3)cc2Cl)CC1` [Compound 1191, N2-[3-Chloro-4-(4-methylpiperazino)phenyl]-N4-cyclohexyl-5-fluoro-2,4-pyrimidinediamine], for which the IC50 was below 10 µM on Syk kinase (isolated Syk kinase, 11 pt) and below 10 µM in test [1] (setting [3]).

As for `C[C@@H]1Oc2ccc(Nc3nc(Nc4ccc5c(c4)c(N)nn5C)ncc3F)cc2NC1=O` [Compound 807, (S)-N2-(3-Amino-1-methylindazol-5-yl)-5-fluoro-N4-(2-methyl-3-oxo-4H-benz[1,4]oxazin-6-yl)-2,4-pyrimidinediamine], the IC50 on Syk kinase (isolated Syk kinase, 11 pt) is below 10 µM; in test [1] (setting [6]), below 10 µM.

`COc1c(C)cc(Nc2ncc(F)c(N(C)c3ccc4c(c3)N(C)C(=O)C(C)(C)O4)n2)cc1C` [Compound 1031]: the IC50 in test [1] (Homo sapiens, Mast cell, low cell density CHMC, tryptase readout, 3 pt, read-out: LD Tryptase, CHMC, IgE, 3 pt) was below 10 µM; in test [2] (tryptase readout) it was above 10 µM.

Regarding `CN1CCOc2cc(Nc3nc(Nc4cccc(-c5cnco5)c4)ncc3F)ccc21` [Compound 237], the IC50 in test [1] (setting [5]) is below 10 µM; in test [2] (tryptase release) it was above 10 µM.
